# Tested on: PC-3; call rule not given here
# Experiment: Cytotoxicity against human PC3 cells by MTT assay
# Assay type: functional, cell-based
row,SMILES,IC50
1,N=C(N)NCCC[C@@H](NC(=O)c1cccc(O)c1O)C(=O)N[C@@H](COC(=O)[C@H](CO)NC(=O)[C@@H](CCCNC(=N)N)NC(=O)c1cccc(O)c1O)C(=O)O [DIVANCHROBACTIN],Not Active
2,N=C(N)NCCC[C@@H](NC(=O)c1cccc(O)c1O)C(=O)N[C@@H](COC(=O)[C@H](COC(=O)[C@H](CO)NC(=O)[C@@H](CCCNC(=N)N)NC(=O)c1cccc(O)c1O)NC(=O)[C@@H](CCCNC(=N)N)NC(=O)c1cccc(O)c1O)C(=O)O [TRIVANCHROBACTIN],Not Active
3,N=C(N)NCCC[C@@H](NC(=O)c1cccc(O)c1O)C(=O)N[C@@H](CO)C(=O)O [VANCHROBACTIN],Not Active
